In paper PMC4182301, “Design, synthesis and SAR exploration of tri-substituted 1,2,4-triazoles as inhibitors of the annexin A2–S100A10 protein interaction” (Bioorganic & Medicinal Chemistry, 2014):
Where two headings read alike, the source gives them in different places.

Target: interaction between the AnxA2 N-terminus and S100A10 (Homo sapiens, UniProt P60903)
Assay: Fluorescence screening assay (FRET competitive binding, Cy3-AnxA2(Ac1–14) peptide / Cy5-S100A10)
Conditions: for IC50 / pIC50 ± SE: FRET assay, 12 observations
Protocol: Assessment of compound activity was performed as described.[35] Briefly, a Cy5-labelled S100A10 tracer was developed and binding of a Cy3-labelled AnxA2(Ac1–14) peptide ligand was assessed using a fluorescence resonance energy transfer readout. Assays were carried out in Nunc black non-treated 384-well plates at 20 °C in 50 μL buffer C. All incubations were performed in quadruplicate. Compounds, peptide and buffer controls were added to the wells in a 10 μL volume in 5% DMSO. Cy5-labelled S100A10 tracer (407 nM) and Cy3-labelled AnxA2(Ac1–14) peptide ligand (1.33 μM) were pre-incubated for 5 min at 20 °C and 40 μL of the preformed complex was then added to the wells and mixed for 10 s to yield a final DMSO concentration of 1%. After 5 min incubation at 20 °C, readings were taken on a Perkin Elmer Envision plate reader by excitation at 488 nm and emission at 695 nm. Fluorescence resonance energy transfer (FRET) was calculated by subtracting the sum of the fluorescence emission of S100A10-Cy5 and AA2(1–14)-Cy3 individually from that measured for the co-incubated partners. Compound binding was calculated as percentage of non-treated control and data were analysed by non-linear regression (dose response—variable slope with bottom and top parameters fixed at 0% and 100%, respectively) using Graphpad Prism Software to determine the IC50 of binding (primary assay).

[1] = Table 1, read-out: pIC50 ± SE (converted)

interaction between the AnxA2 N-terminus and S100A10, sequence (P60903 whole entry, species assumed): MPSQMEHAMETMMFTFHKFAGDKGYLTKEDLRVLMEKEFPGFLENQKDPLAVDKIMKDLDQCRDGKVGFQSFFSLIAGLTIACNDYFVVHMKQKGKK

Row | SMILES | IC50 (Table 1, read-out: IC50) | pIC50 ± SE (Table 1) | other results
1 | Cc1ccc(C)c(NC(=O)CSc2nnc(CSc3nc(C)cc(C)n3)n2Cc2ccco2)c1 [Compound 1a, N-(2,5-Dimethyl-phenyl)-2-[5-(4,6-dimethyl-pyrimidin-2-ylsulfanylmethyl)-4-furan-2-ylmethyl-4H-[1,2,4]triazol-3-ylsulfanyl]-acetamide] | 37 µM |  | IC50 [1]: 38 µM
2 | Cc1nnc(NC(=O)CSc2nnc(Cc3ccccc3)n2Cc2ccccc2)s1 [Compound 1b] | 53 µM |  | 
3 | COc1ccc(OCc2nnc(SC(C)C(=O)Nc3nccs3)n2-c2ccccc2)cc1 (centres unmarked) [Compound 1c] | 108 µM |  | IC50 [1]: 110 µM
4 | CCCCn1c(SCC(=O)Nc2cccc(C)n2)nnc1-c1ccco1 [Compound 1d] | 103 µM |  | IC50 [1]: 105 µM
5 | Cc1cc(C)nc(SCc2nnc(SCC(N)=O)n2Cc2ccco2)n1 [Compound 27, 2-[5-(4,6-Dimethyl-pyrimidin-2-ylsulfanylmethyl)-4-furan-2-ylmethyl-4H-[1,2,4]triazol-3-ylsulfanyl]-acetamide] | 178 µM | 3.75 ± 0.15 | 
6 | Cc1cc(C)nc(SCc2nnc(SCC(=O)Nc3nccs3)n2Cc2ccco2)n1 [Compound 28, 2-[5-(4,6-Dimethyl-pyrimidin-2-ylsulfanylmethyl)-4-furan-2-ylmethyl-4H-[1,2,4]triazol-3-ylsulfanyl]-N-thiazol-2-yl-acetamide] | 129 µM | 3.89 ± 0.06 | 
7 | Cc1cc(C)nc(SCc2nnc(SCC(=O)Nc3nc(C)cs3)n2Cc2ccco2)n1 [Compound 29, 2-[5-(4,6-Dimethyl-pyrimidin-2-ylsulfanylmethyl)-4-furan-2-ylmethyl-4H-[1,2,4]triazol-3-ylsulfanyl]-N-(4-methyl-thiazol-2-yl)-acetamide] | 30 µM | 4.53 ± 0.06 | 
8 | Cc1cc(C)nc(SCc2nnc(SCC(=O)Nc3cc(C)on3)n2Cc2ccco2)n1 [Compound 30, 2-[5-(4,6-Dimethyl-pyrimidin-2-ylsulfanylmethyl)-4-furan-2-ylmethyl-4H-[1,2,4]triazol-3-ylsulfanyl]-N-(5-methyl-isoxazol-3-yl)-acetamide] | 43 µM | 4.37 ± 0.07 | 
9 | Cc1cc(C)nc(SCc2nnc(SCC(=O)Nc3ccccc3)n2Cc2ccco2)n1 [Compound 31, 2-[5-(4,6-Dimethyl-pyrimidin-2-ylsulfanylmethyl)-4-furan-2-ylmethyl-4H-[1,2,4]triazol-3-ylsulfanyl]-N-phenyl-acetamide] | 23 µM | 4.63 ± 0.04 | 
10 | Cc1cccc(NC(=O)CSc2nnc(CSc3nc(C)cc(C)n3)n2Cc2ccco2)c1 [Compound 32, 2-[5-(4,6-Dimethyl-pyrimidin-2-ylsulfanylmethyl)-4-furan-2-ylmethyl-4H-[1,2,4]triazol-3-ylsulfanyl]-N-m-tolyl-acetamide] | 13 µM | 4.89 ± 0.04 | 
11 | Cc1ccc(NC(=O)CSc2nnc(CSc3nc(C)cc(C)n3)n2Cc2ccco2)cc1 [Compound 33, 2-[5-(4,6-Dimethyl-pyrimidin-2-ylsulfanylmethyl)-4-furan-2-ylmethyl-4H-[1,2,4]triazol-3-ylsulfanyl]-N-p-tolyl-acetamide] | 11 µM | 4.96 ± 0.04 | 
12 | Cc1ccc(NC(=O)CSc2nnc(CSc3nc(C)cc(C)n3)n2Cc2ccco2)c(C)c1 [Compound 34, N-(2,4-Dimethyl-phenyl)-2-[5-(4,6-dimethyl-pyrimidin-2-ylsulfanylmethyl)-4-furan-2-ylmethyl-4H-[1,2,4]triazol-3-ylsulfanyl]-acetamide] | 15 µM | 4.83 ± 0.04 | 
13 | Cc1cc(C)nc(SCc2nnc(SCC(=O)Nc3ccc(C)c(C)c3)n2Cc2ccco2)n1 [Compound 35, N-(3,4-Dimethyl-phenyl)-2-[5-(4,6-dimethyl-pyrimidin-2-ylsulfanylmethyl)-4-furan-2-ylmethyl-4H-[1,2,4]triazol-3-ylsulfanyl]-acetamide] | 10 µM | 5.02 ± 0.04 | 
14 | Cc1cc(C)nc(SCc2nnc(SCC(=O)Nc3ccc(C(F)(F)F)cc3)n2Cc2ccco2)n1 [Compound 37, 2-[5-(4,6-Dimethyl-pyrimidin-2-ylsulfanylmethyl)-4-furan-2-ylmethyl-4H-[1,2,4]triazol-3-ylsulfanyl]-N-(4-trifluoromethyl-phenyl)-acetamide] | 28 µM | 4.55 ± 0.07 | 
15 | Cc1cc(C)nc(SCc2nnc(SCC(=O)Nc3cc(C(F)(F)F)cc(C(F)(F)F)c3)n2Cc2ccco2)n1 [Compound 38, N-(3,5-Bis-trifluoromethyl-phenyl)-2-[5-(4,6-dimethyl-pyrimidin-2-ylsulfanylmethyl)-4-furan-2-ylmethyl-4H-[1,2,4]triazol-3-ylsulfanyl]-acetamide] | 9 µM | 5.05 ± 0.03 | 
16 | Cc1cc(C)nc(SCc2nnc(SCC(=O)Nc3ccc(Cl)cc3)n2Cc2ccco2)n1 [Compound 39, N-(4-Chloro-phenyl)-2-[5-(4,6-dimethyl-pyrimidin-2-ylsulfanylmethyl)-4-furan-2-ylmethyl-4H-[1,2,4]triazol-3-ylsulfanyl]-acetamide] | 17 µM | 4.76 ± 0.03 | 
17 | Cc1cc(C)nc(SCc2nnc(SCC(=O)Nc3ccc(Br)cc3)n2Cc2ccco2)n1 [Compound 40, N-(4-Bromo-phenyl)-2-[5-(4,6-dimethyl-pyrimidin-2-ylsulfanylmethyl)-4-furan-2-ylmethyl-4H-[1,2,4]triazol-3-ylsulfanyl]-acetamide] | 7 µM | 5.14 ± 0.03 | fold increase in potency compared to initial hit compound 1a (relative to 1a): 5 fold
18 | C=CCn1c(CSc2nc(C)cc(C)n2)nnc1SCC(=O)Nc1ccc(C)c(C)c1 [Compound 41, 2-[4-Allyl-5-(4,6-dimethyl-pyrimidin-2-ylsulfanylmethyl)-4H-[1,2,4]triazol-3-ylsulfanyl]-N-(3,4-dimethyl-phenyl)-acetamide] |  |  | pIC50 ± SE (Table 2): 4.56 ± 0.03; IC50 (Table 2, read-out: IC50): 27 µM
19 | COCCCn1c(CSc2nc(C)cc(C)n2)nnc1SCC(=O)Nc1ccc(C)c(C)c1 [Compound 42, N-(3,4-Dimethyl-phenyl)-2-[5-(4,6-dimethyl-pyrimidin-2-ylsulfanylmethyl)-4-(3-methoxy-propyl)-4H-[1,2,4]triazol-3-ylsulfanyl]-acetamide] |  |  | pIC50 ± SE (Table 2): 4.49 ± 0.04; IC50 (Table 2, read-out: IC50): 32 µM
20 | COc1ccc(-n2c(CSc3nc(C)cc(C)n3)nnc2SCC(=O)Nc2ccc(C)c(C)c2)cc1 [Compound 43, N-(3,4-Dimethyl-phenyl)-2-[5-(4,6-dimethyl-pyrimidin-2-ylsulfanylmethyl)-4-(4-methoxy-phenyl)-4H-[1,2,4]triazol-3-ylsulfanyl]-acetamide] |  |  | pIC50 ± SE (Table 2): 4.29 ± 0.09; IC50 (Table 2, read-out: IC50): 52 µM
21 | Cc1cc(C)nc(SCc2nnc(SCC(=O)Nc3ccc(C)c(C)c3)n2-c2ccc(Cl)cc2)n1 [Compound 44, 2-[4-(4-Chloro-phenyl)-5-(4,6-dimethyl-pyrimidin-2-ylsulfanylmethyl)-4H-[1,2,4]triazol-3-ylsulfanyl]-N-(3,4-dimethyl-phenyl)-acetamide] |  |  | pIC50 ± SE (Table 2): 4.23 ± 0.08; IC50 (Table 2, read-out: IC50): 59 µM
22 | Cc1cc(C)nc(SCc2nnc(SCCC(=O)Nc3ccc(C)c(C)c3)n2Cc2ccco2)n1 [Compound 45, N-(3,4-Dimethyl-phenyl)-3-[5-(4,6-dimethyl-pyrimidin-2-ylsulfanylmethyl)-4-furan-2-ylmethyl-4H-[1,2,4]triazol-3-ylsulfanyl]-propionamide] |  |  | pIC50 ± SE (Table 2): 4.62 ± 0.03; IC50 (Table 2, read-out: IC50): 24 µM
